# Data taken from PubChem BioAssay (NCI).
#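 Here, GI50 denotes the concentration required for 50% inhibition of growth. At the TGI there is no net growth.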
# Columns and labels:
# Test in all cases: NCI-60 cell line screen, 384-well format
# 786-0 renal = system: 786-0 renal
# A498 renal = system: A498 renal
# ACHN renal = system: ACHN renal
# BT-549 breast = system: BT-549 breast
# CAKI-1 renal = system: CAKI-1 renal
# CCRF-CEM leukemia = system: CCRF-CEM leukemia
# COLO 205 colon = system: COLO 205 colon
# DU-145 prostate = system: DU-145 prostate
# EKVX NSCLC = system: EKVX NSCLC
# HCC-2998 colon = system: HCC-2998 colon
# HCT-15 colon = system: HCT-15 colon
# HL-60(TB) leukemia = system: HL-60(TB) leukemia
# HOP-62 NSCLC = system: HOP-62 NSCLC
# HOP-92 NSCLC = system: HOP-92 NSCLC
# HS 578T breast = system: HS 578T breast
# HT29 colon = system: HT29 colon
# IGROV1 ovarian = system: IGROV1 ovarian
# K-562 leukemia = system: K-562 leukemia
# KM12 colon = system: KM12 colon
# LOX IMVI melanoma = system: LOX IMVI melanoma
# M14 melanoma = system: M14 melanoma
# MALME-3M melanoma = system: MALME-3M melanoma
# MCF7 breast = system: MCF7 breast
# MDA-MB-231 breast = system: MDA-MB-231 breast
# MDA-MB-435 melanoma = system: MDA-MB-435 melanoma
# MDA-MB-468 breast = system: MDA-MB-468 breast
# MOLT-4 leukemia = system: MOLT-4 leukemia
# NCI-H226 lung = system: NCI-H226 lung
# NCI-H23 lung = system: NCI-H23 lung
# NCI-H322M lung = system: NCI-H322M lung
# NCI-H460 NSCLC = system: NCI-H460 NSCLC
# NCI-H522 lung = system: NCI-H522 lung
# NCI/ADR-RES ovarian = system: NCI/ADR-RES ovarian
# OVCAR-3 ovarian = system: OVCAR-3 ovarian
# OVCAR-4 ovarian = system: OVCAR-4 ovarian
# OVCAR-5 ovarian = system: OVCAR-5 ovarian
# OVCAR-8 ovarian = system: OVCAR-8 ovarian
# PC-3 prostate = system: PC-3 prostate
# RPMI-8226 leukemia = system: RPMI-8226 leukemia
# RXF 393 renal = system: RXF 393 renal
# SF-268 CNS = system: SF-268 CNS
# SF-295 CNS = system: SF-295 CNS
# SF-539 CNS = system: SF-539 CNS
# SK-MEL-2 melanoma = system: SK-MEL-2 melanoma
# SK-MEL-28 melanoma = system: SK-MEL-28 melanoma
# SK-MEL-5 melanoma = system: SK-MEL-5 melanoma
# SK-OV-3 ovarian = system: SK-OV-3 ovarian
# SN12C renal = system: SN12C renal
# SNB-19 CNS = system: SNB-19 CNS
# SNB-75 CNS = system: SNB-75 CNS
# SR leukemia = system: SR leukemia
# SW-620 colon = system: SW-620 colon
# T-47D breast = system: T-47D breast
# U251 glioblastoma = system: U251 glioblastoma
# UACC-257 melanoma = system: UACC-257 melanoma
# UACC-62 melanoma = system: UACC-62 melanoma
# UO-31 renal = system: UO-31 renal
smiles,measurement,setting,value
COc1ccc(F)cc1-c1ccnc2[nH]c(C3=CCN(C4CCC(CC(=O)O)CC4)CC3)cc12 (centres undefined),GI50,786-0 renal,82.4 nM
same,TGI,786-0 renal,266 nM
same,GI50,A498 renal,86.4 nM
same,GI50,ACHN renal,156 nM
same,GI50,BT-549 breast,53.4 nM
same,TGI,BT-549 breast,145 nM
same,GI50,CAKI-1 renal,111 nM
same,TGI,CAKI-1 renal,465 nM
same,GI50,CCRF-CEM leukemia,21.8 nM
same,TGI,CCRF-CEM leukemia,57.8 nM
same,GI50,COLO 205 colon,33.6 nM
same,TGI,COLO 205 colon,188 nM
same,GI50,DU-145 prostate,115 nM
same,TGI,DU-145 prostate,1820 nM
same,GI50,EKVX NSCLC,150 nM
same,TGI,EKVX NSCLC,437 nM
same,GI50,HCC-2998 colon,110 nM
same,TGI,HCC-2998 colon,432 nM
same,GI50,HCT-15 colon,63.7 nM
same,TGI,HCT-15 colon,2320 nM
same,GI50,HL-60(TB) leukemia,15.1 nM
same,TGI,HL-60(TB) leukemia,32.5 nM
same,GI50,HOP-62 NSCLC,52.4 nM
same,TGI,HOP-62 NSCLC,194 nM
same,GI50,HOP-92 NSCLC,94.1 nM
same,GI50,HS 578T breast,19 nM
same,TGI,HS 578T breast,55.7 nM
same,GI50,HT29 colon,184 nM
same,TGI,HT29 colon,606 nM
same,GI50,IGROV1 ovarian,77.1 nM
same,TGI,IGROV1 ovarian,> 100000 nM
same,GI50,K-562 leukemia,136 nM
same,TGI,K-562 leukemia,521 nM
same,GI50,KM12 colon,28.9 nM
same,TGI,KM12 colon,240 nM
same,GI50,LOX IMVI melanoma,33.6 nM
same,TGI,LOX IMVI melanoma,141 nM
same,GI50,M14 melanoma,87.2 nM
same,TGI,M14 melanoma,304 nM
same,GI50,MALME-3M melanoma,63 nM
same,TGI,MALME-3M melanoma,197 nM
same,GI50,MCF7 breast,31.1 nM
same,TGI,MCF7 breast,12000 nM
same,GI50,MDA-MB-231 breast,70.1 nM
same,TGI,MDA-MB-231 breast,362 nM
same,GI50,MDA-MB-435 melanoma,130 nM
same,TGI,MDA-MB-435 melanoma,411 nM
same,GI50,MDA-MB-468 breast,34.1 nM
same,TGI,MDA-MB-468 breast,118 nM
same,GI50,MOLT-4 leukemia,36.6 nM
same,TGI,MOLT-4 leukemia,121 nM
same,GI50,NCI-H226 lung,116 nM
same,TGI,NCI-H226 lung,451 nM
same,GI50,NCI-H23 lung,49.5 nM
same,TGI,NCI-H23 lung,195 nM
same,GI50,NCI-H322M lung,113 nM
same,TGI,NCI-H322M lung,367 nM
same,GI50,NCI-H460 NSCLC,63.4 nM
same,TGI,NCI-H460 NSCLC,183 nM
same,GI50,NCI-H522 lung,131 nM
same,TGI,NCI-H522 lung,306 nM
same,GI50,NCI/ADR-RES ovarian,1220 nM
same,TGI,NCI/ADR-RES ovarian,4590 nM
same,GI50,OVCAR-3 ovarian,33.4 nM
same,TGI,OVCAR-3 ovarian,183 nM
same,GI50,OVCAR-4 ovarian,158 nM
same,TGI,OVCAR-4 ovarian,492 nM
same,GI50,OVCAR-5 ovarian,115 nM
same,TGI,OVCAR-5 ovarian,31600 nM
same,GI50,OVCAR-8 ovarian,54.6 nM
same,TGI,OVCAR-8 ovarian,238 nM
same,GI50,PC-3 prostate,124 nM
same,TGI,PC-3 prostate,520 nM
same,GI50,RPMI-8226 leukemia,42.2 nM
same,TGI,RPMI-8226 leukemia,138 nM
same,GI50,RXF 393 renal,18.3 nM
same,TGI,RXF 393 renal,53.7 nM
same,GI50,SF-268 CNS,22.3 nM
same,TGI,SF-268 CNS,84.4 nM
same,GI50,SF-295 CNS,171 nM
same,TGI,SF-295 CNS,456 nM
same,GI50,SF-539 CNS,104 nM
same,TGI,SF-539 CNS,277 nM
same,GI50,SK-MEL-2 melanoma,49.3 nM
same,TGI,SK-MEL-2 melanoma,176 nM
same,GI50,SK-MEL-28 melanoma,39.1 nM
same,TGI,SK-MEL-28 melanoma,202 nM
same,GI50,SK-MEL-5 melanoma,48.7 nM
same,TGI,SK-MEL-5 melanoma,156 nM
same,GI50,SK-OV-3 ovarian,398 nM
same,TGI,SK-OV-3 ovarian,> 25900 nM
same,GI50,SN12C renal,59.7 nM
same,TGI,SN12C renal,282 nM
same,GI50,SNB-19 CNS,78.7 nM
same,TGI,SNB-19 CNS,> 68300 nM
same,GI50,SNB-75 CNS,48.3 nM
same,TGI,SNB-75 CNS,172 nM
same,TGI,SR leukemia,< 14.1 nM
same,GI50,SW-620 colon,62.3 nM
same,TGI,SW-620 colon,588 nM
same,GI50,T-47D breast,72 nM
same,GI50,U251 glioblastoma,142 nM
same,TGI,U251 glioblastoma,490 nM
same,GI50,UACC-257 melanoma,138 nM
same,TGI,UACC-257 melanoma,288 nM
same,GI50,UACC-62 melanoma,< 16.4 nM
same,TGI,UACC-62 melanoma,87.5 nM
same,GI50,UO-31 renal,102 nM
same,TGI,UO-31 renal,691 nM
CC[C@@H](C(=O)[C@@H](C)[C@@H](O)[C@H](C)[C@@H]1O[C@@H]([C@@H](CC)C(=O)O)CC[C@@H]1C)[C@H]1O[C@]2(C=C[C@@H](O)[C@]3(CC[C@@](C)([C@H]4CC[C@](O)(CC)[C@H](C)O4)O3)O2)[C@H](C)C[C@@H]1C,GI50,ACHN renal,416 nM
same,TGI,ACHN renal,13600 nM
same,GI50,HCT-15 colon,299 nM
same,TGI,HCT-15 colon,1190 nM
same,GI50,HL-60(TB) leukemia,< 10 nM
same,TGI,HL-60(TB) leukemia,< 10 nM
same,GI50,MCF7 breast,< 10 nM
same,TGI,MCF7 breast,278 nM
same,GI50,NCI/ADR-RES ovarian,167 nM
same,TGI,NCI/ADR-RES ovarian,2110 nM
same,GI50,OVCAR-3 ovarian,< 10 nM
same,TGI,OVCAR-3 ovarian,< 10 nM
same,GI50,RXF 393 renal,< 10 nM
same,TGI,RXF 393 renal,< 10 nM
same,GI50,SN12C renal,< 10 nM
same,TGI,SN12C renal,1760 nM
same,GI50,SR leukemia,< 10 nM
same,TGI,SR leukemia,< 10 nM
same,GI50,UO-31 renal,157 nM
same,TGI,UO-31 renal,759 nM
